Test results published in patent US5614192A, “T cell receptor peptides as therapeutics for immune-related disease” (Connective Therapeutics, Inc., priority 1993, dated 1997).
Ends that are not written are not given here.

Assays:
[1] = tested on: EAE; assay: Prevention of EAE by immunization with TCR peptide (Example VI); format: in vivo, Lewis rats
Text: EAE is a well-recognized rat model of the human autoimmune disease, multiple sclerosis. […] In this model, the disease is induced by injecting the subject rat with an encephalitogenic form of myelin basic protein, such as, for example, guinea pig basic protein (GPBP) or a synthetic peptide that corresponds to residues 72-89 of GPBP (GPBP(72-89)). Injection of either of these peptides in complete Freund's adjuvant (CFA) induces encephalitogenic T cell clones that utilize preferentially the rat homologs of mouse TCR Vα2 and Vβ8 genes (Chou, Y. K., et al., J. Neurosci. Res. 22:181-187 (1989); Burns, F. R., et al., J. Exp. Med. 169:27-39 (1989)).
^1 EAE was induced by SC challenge with 50 μg GPBP + 400 μg
^2 Rats were injected SC with either: (1) 100 μg of the TCR peptid
^3 Values represent the mean of the maximum severity of EAE. 0, no

[2] = tested on: TCR Vβ8(39-59) peptide; format: binding, rat
[3] = tested on: T cell lines derived from rats protected from EAE; assay: Proliferation of LN cells and T cell lines from rats protected by TCR Vβ8 peptide (Table 12); format: cell-based, rat
[4] = tested on: LN cells and T cell lines; assay: Proliferation of LN cells and lines from rats protected by transfer of TCR Vβ8 peptide-specific T cells (Table 15); format: cell-based, rat
Description: ^1 Lymph node (LN) cells were collected 20 days after simultaneous
^2 LN cells were tested directly (NL column).
^3 T cell lines were selected from these LN cells by culture with TCR

[5] = tested on: EAE; assay: Prevention and suppression of EAE by immunization with TCR Vβ8(39-59) (Table 17); format: in vivo, Lewis rats
[6] = tested on: EAE; assay: Clinical EAE in rats treated with TCR Vβ8(39-59) before or after onset (Table 22); format: in vivo
Description: The ability of the TCR Vβ8(39-59) given either SC (in adjuvant) or ID (in saline) to disrupt the disease process when given at various times after induction of EAE with GPBP was tested (Table 22). […] In both cases, with both routes of injection of the peptide, there was a significant reduction in the duration of the disease, though not in the severity or time of onset. The efficacy of the peptide given in saline via the ID route is of particular importance to human therapy, as it is preferred to SC injection in adjuvant.
In Experiment 2, the time of ID administration of the TCR peptide was varied, as was the dose. […] A delay in onset of the disease was also observed. Furthermore, the percentage of animals showing signs of the disease decreased. A larger dose of the peptide (200 μg) appeared less efficacious than the lower dose, possibly due to a short-term overload of the peptide which could have comprised the immune response generated against the TCR. Treatment with a similarly sized peptide corresponding to an irrelevant TCR had no effect on onset, severity or incidence of EAE, but may have reduced the duration somewhat (last line of Table 22).

[7] = tested on: DTH response; assay: Delayed hypersensitivity responses to TCR peptides, ear swelling (Table 26); format: in vivo, Lewis rats
[8] = tested on: LNC and T cell lines; assay: T cell proliferation after treatment of EAE with TCR Vβ8 39-59/CFA (Table 27); format: cell-based, rats
Description: Lymphocyte Proliferation: Activation of T cells was measured by ^3 H-Tdy uptake. 500,000 lymph node cells or 20,000 line cells in the presence of 1 million irradiated thymic accessory cells were incubated with culture medium and antigens in microtiter wells for 18 hours prior to the addition of 0.5 μBq labeled thymidine. The cell cultures were harvested onto glass fiber filters and counted by liquid scintillation techniques. Mean CPM were calculated from triplicate cultures. Standard deviations (SD) from replicate cultures varied <10% from the mean value.
^a Treated rats were injected s.q. with 50 μg TCR Vβ839-59
^b LW cells collected after the untreated group recovered from EAE

[9] = tested on: DTH (ear swelling); assay: DTH to Vβ8.2-39-59 and Vβ8-44-54 in Vβ8-44-54/CFA immunized rats (Table 34); format: in vivo; conditions: rats immunized 14 days with Vβ8-44-54/CFA; net
Description: Transfer of DTH and protection: Delayed type hypersensitivity reactions were measured by the ear swelling assay (Offner et al., J. Neuroimmunol. 9: 147 (1984)) 24 and 48 h after injection i.d. of 20 μg antigen.
Values represent mean ± S.D. of net ear swelling in 6 immunized rats.

[10] = A. TCR Vβ8 peptide-specific T cell transfer
[11] = peptide day 0, Gp-(S87-99) challenge day 44
[12] = peptide day 0, Gp-S49S challenge day 44
[13] = Exp. 1, 100 μg SC in CFA, day 10
[14] = Exp. 1, 100 μg SC in CFA, day 13

DMGHGLRLIHYSYDVNSTEKG [TCR Vβ8(39-59), 21-amino acid CDR2 peptide of rat TCR Vβ8]
EAE Incidence ([1]; 100 μg peptide/CFA SC 30 days before challenge with 50 μg GPBP/CFA): 0/10
protection from EAE ([1]; Lewis rats): prevented completely the induction of EAE
absorbance of serum on TCR Vβ8(39-59) peptide (A405) [2]: 0.63±0.12 units
T Cell Proliferation ([3]; 1st value column (head not given; LN cells of protected rats)): 27 cpm × 10^-3
T Cell Proliferation ([3]; 2nd value column (head not given, TCR Vβ8(39-59)-selected line)): 100 cpm × 10^-3
T Cell Proliferation ([3]; 4th value column (head not given; mixed TCR- and BP-specific T cells)): 140 cpm × 10^-3
T Cell Proliferation ([3]; +OX-6 (anti I-A)): 99 cpm × 10^-3
T Cell Proliferation ([3]; +OX-8 (anti-CD8)): 22 cpm × 10^-3
T Cell Proliferation ([3]; +OX-17 (anti I-E)): 100 cpm × 10^-3
T Cell Proliferation ([3]; +OX-18 (anti class 1)): 31 cpm × 10^-3
T Cell Proliferation ([3]; +W3/25 (anti-CD4)): 105 cpm × 10^-3
T Cell Proliferation ([3]; GPBP-selected line): 1 cpm × 10^-3
Proliferation, GPBP Selected Line [4, 10]: 6 cpm × 10^-3
Proliferation, TCR Peptide Selected Line [4, 10]: 52 cpm × 10^-3
Proliferation, LN ([4]; A. rats given 3 × 10^7 TCR Vβ8 peptide-specific T cells + GPBP/CFA, LN cells day 20): 90 cpm × 10^-3
Proliferation, GPBP Selected Line ([4]; B. Saline + GPBP/CFA): 6 cpm × 10^-3
Proliferation, LN ([4]; B. Saline + GPBP/CFA): 8 cpm × 10^-3
Clinical Score ([5]; 100 μg peptide/CFA day 0, GPBP (50 μg) challenge day 0): 0.7 ± 0.3
Clinical Score ([5]; 100 μg peptide/CFA day 0, Gp-S49S (100 μg) challenge day 0): 0.5
Clinical Score [5, 11]: 0.0
Histological Score Br [5, 11]: 0.5 ± 0.6
Histological Score Sc [5, 11]: 0.8 ± 0.5
Clinical Score [5, 12]: 0.8
Histological Score Br [5, 12]: 1.8 ± 1.7
Histological Score Sc [5, 12]: 2.8 ± 1.0
Day of Onset ([6]; Exp. 1, 50 μg ID, day 13): 13.4 ± 0.5
Disease Duration ([6]; Exp. 1, 50 μg ID, day 13): 3.2 ± 0.5
Disease Incidence ([6]; Exp. 1, 50 μg ID, day 13): 5/5
Disease Severity ([6]; Exp. 1, 50 μg ID, day 13): 2.6 ± 0.4
Day of Onset [6, 13]: 14.0 ± 0.4
Disease Duration [6, 13]: 3.2 ± 0.4
Disease Incidence [6, 13]: 5/5
Disease Severity [6, 13]: 2.8 ± 0.4
Day of Onset [6, 14]: 13.0 ± 0
Disease Duration [6, 14]: 4.0 ± 0
Disease Incidence [6, 14]: 5/5
Disease Severity [6, 14]: 3.0 ± 0
Day of Onset ([6]; Exp. 2, 50 μg ID, day 7): 15.0 ± 0.8
Disease Duration ([6]; Exp. 2, 50 μg ID, day 7): 2.0 ± 2.0
Disease Incidence ([6]; Exp. 2, 50 μg ID, day 7): 4/6
Disease Severity ([6]; Exp. 2, 50 μg ID, day 7): 1.7 ± 1.4
Day of Onset ([6]; Exp. 2, 50 μg ID, day 14): 16.0 ± 1.
Disease Duration ([6]; Exp. 2, 50 μg ID, day 14): 2.3 ± 2.0
Disease Incidence ([6]; Exp. 2, 50 μg ID, day 14): 4/6
Disease Severity ([6]; Exp. 2, 50 μg ID, day 14): 1.7 ± 1.5
Day of Onset ([6]; Exp. 2, 50 μg, day 0): 15.6 ± 2.6
Disease Duration ([6]; Exp. 2, 50 μg, day 0): 2.3 ± 1.6
Disease Incidence ([6]; Exp. 2, 50 μg, day 0): 5/6
Disease Severity ([6]; Exp. 2, 50 μg, day 0): 1.8 ± 1.0
Day of Onset ([6]; Exp. 2, 200 μg ID, day 13): 14.0 ± 1.4
Disease Duration ([6]; Exp. 2, 200 μg ID, day 13): 3.0 ± 1.2
Disease Incidence ([6]; Exp. 2, 200 μg ID, day 13): 6/6
Disease Severity ([6]; Exp. 2, 200 μg ID, day 13): 2.3 ± 0.8
48 Hour DTH Response ([7]; GP-BP/CFA immunized rats, ear test Day 12 (EAE onset)): 11 ± 2
48 Hour DTH Response ([7]; Normal or saline/CFA rats, ear test Day 12): 6 ± 3
48 Hour DTH Response ([7]; TCR Vβ8 peptide/CFA immunized rats, ear test Day 30): 36 ± 8
48 Hour DTH Response ([7]; TCR Vβ814 (so in the source) peptide/CFA immunized rats, ear test Day 30): 6 ± 3
net proliferation of reactive cells ([8]; GP-MBP-selected line from TCR peptide-treated rats): 49,000 CPM
net proliferation of reactive cells ([8]; GP-MBP-selected line from untreated EAE-recovered rats): 9,000 CPM
Proliferation ([8]; Treated rats (TCR Vβ8 39-59/CFA at onset), LNC): 39 ± 4 CPM/1000
Proliferation ([8]; Treated rats, line BP/1st): 66 ± 6 CPM/1000
Proliferation ([8]; Treated rats, line Vβ8/1st): 85 ± 2 CPM/1000
Proliferation ([8]; Untreated rats (GPBP/CFA only), LNC): 34 ± 4 CPM/1000
Proliferation ([8]; Untreated rats, line BP/1st): 24 ± 3 CPM/1000
Proliferation ([8]; Untreated rats, line Vβ8/1st): 34 ± 2 CPM/1000
Proliferation ([8]; Untreated rats, line Vβ14/1st): 11 ± 1 CPM/1000
Ear Swelling 24 h [9]: 36 ± 8 mm/100
Ear Swelling 48 h [9]: 41 ± 9 mm/100
